Laboratory results published in patent publication US5302526A, “Recombinant DNA enclosed amphiphilic leader sequences for the production and purification of fusion proteins” (Creative BioMolecules, Inc., priority 1993, dated 1994).
Like-named read-outs stand apart in the source and are kept apart here. Ends that are not written are not given here.

Test: HPLC partitioning of synthetic helix dimers between aqueous mobile phase and nonpolar C-18 stationary phase as a function of pH
Assay type: physicochemical
Experimental: To determine whether the properties of the synthetic helices corresponded to their expected properties, each was tested on an HPLC column using a nonpolar (C-18) stationary phase. A sample of synthetic peptide solution was then injected, and the elution time (time to emerge from the bottom of the column) measured. The void time for the column was measured by injecting a small charged molecule such as citrate or acetate. The fraction of the sample solubilized in the aqueous, mobile phase (versus that bound to the hydrophobic, immobile phase) is determined by the void time divided by the sample elution time. A sample emerging in the void time is completely soluble in the mobile phase, whereas if it emerges in two void times it is half solubilized in the mobile phase and half bound to the stationary phase. By this procedure the affinity of each of the synthetic peptides for the aqueous, mobile phase, relative to the hydrophobic, stationary phase, could be measured as a function of pH. The HPLC column was run isocratically (constant eluent) using one of several different buffer systems. […] For that reason a value of 13% was used for all the buffer systems in that at that concentration the elution time for the peptides was determined to be on the order of 2 to 20 times the void time. […] The column was allowed to equilibrate as judged by 214 nm absorbance baseline stability. […]

| Sequence | fraction of the helix partitioned into the aqueous mobile phase (partition coefficient) as a function of pH (C-18 HPLC, isocratic, 13% acetonitrile, trend with increasing pH) | fraction of the helix partitioned into the aqueous mobile phase (partition coefficient) as a function of pH |
| --- | --- | --- |
| AHNLNEAAHNLNEA [Helix P-81, (Ala--His--Asn--Leu--Asn--Glu--Ala)2] | fraction of the helix partitioning into the mobile phase increases as pH increases | – |
| AKNLNEAAKNLNEA [Helix P-72, (Ala--Lys--Asn--Leu--Asn--Glu--Ala)2] | – | as the pH increased the peptide partitioned increasingly into the hydrophobic (stationary) phase |
